US20140113898A1, “BISARYLSULFONE AND DIALKYLARYLSULFONE COMPOUNDS AS CALCIUM CHANNEL BLOCKERS” (Zalicus Pharmaceuticals Ltd., priority 2010, published 2014)

Each compound was assayed against T1, CaV2.2 (Homo sapiens, UniProt Q00975) (assay: High-throughput CaV2.2/Kir2.3 FLIPR fluorescent assay). Settings: FLIPR data CaV2.2 (nM), Table 5; Fluo-4 FLIPR; closed or inactivated state not stated.
T1 construct: expressed in transfected cells; host or cells: unnamed doxycycline-inducible cell line
T1 sequence (Q00975 whole entry): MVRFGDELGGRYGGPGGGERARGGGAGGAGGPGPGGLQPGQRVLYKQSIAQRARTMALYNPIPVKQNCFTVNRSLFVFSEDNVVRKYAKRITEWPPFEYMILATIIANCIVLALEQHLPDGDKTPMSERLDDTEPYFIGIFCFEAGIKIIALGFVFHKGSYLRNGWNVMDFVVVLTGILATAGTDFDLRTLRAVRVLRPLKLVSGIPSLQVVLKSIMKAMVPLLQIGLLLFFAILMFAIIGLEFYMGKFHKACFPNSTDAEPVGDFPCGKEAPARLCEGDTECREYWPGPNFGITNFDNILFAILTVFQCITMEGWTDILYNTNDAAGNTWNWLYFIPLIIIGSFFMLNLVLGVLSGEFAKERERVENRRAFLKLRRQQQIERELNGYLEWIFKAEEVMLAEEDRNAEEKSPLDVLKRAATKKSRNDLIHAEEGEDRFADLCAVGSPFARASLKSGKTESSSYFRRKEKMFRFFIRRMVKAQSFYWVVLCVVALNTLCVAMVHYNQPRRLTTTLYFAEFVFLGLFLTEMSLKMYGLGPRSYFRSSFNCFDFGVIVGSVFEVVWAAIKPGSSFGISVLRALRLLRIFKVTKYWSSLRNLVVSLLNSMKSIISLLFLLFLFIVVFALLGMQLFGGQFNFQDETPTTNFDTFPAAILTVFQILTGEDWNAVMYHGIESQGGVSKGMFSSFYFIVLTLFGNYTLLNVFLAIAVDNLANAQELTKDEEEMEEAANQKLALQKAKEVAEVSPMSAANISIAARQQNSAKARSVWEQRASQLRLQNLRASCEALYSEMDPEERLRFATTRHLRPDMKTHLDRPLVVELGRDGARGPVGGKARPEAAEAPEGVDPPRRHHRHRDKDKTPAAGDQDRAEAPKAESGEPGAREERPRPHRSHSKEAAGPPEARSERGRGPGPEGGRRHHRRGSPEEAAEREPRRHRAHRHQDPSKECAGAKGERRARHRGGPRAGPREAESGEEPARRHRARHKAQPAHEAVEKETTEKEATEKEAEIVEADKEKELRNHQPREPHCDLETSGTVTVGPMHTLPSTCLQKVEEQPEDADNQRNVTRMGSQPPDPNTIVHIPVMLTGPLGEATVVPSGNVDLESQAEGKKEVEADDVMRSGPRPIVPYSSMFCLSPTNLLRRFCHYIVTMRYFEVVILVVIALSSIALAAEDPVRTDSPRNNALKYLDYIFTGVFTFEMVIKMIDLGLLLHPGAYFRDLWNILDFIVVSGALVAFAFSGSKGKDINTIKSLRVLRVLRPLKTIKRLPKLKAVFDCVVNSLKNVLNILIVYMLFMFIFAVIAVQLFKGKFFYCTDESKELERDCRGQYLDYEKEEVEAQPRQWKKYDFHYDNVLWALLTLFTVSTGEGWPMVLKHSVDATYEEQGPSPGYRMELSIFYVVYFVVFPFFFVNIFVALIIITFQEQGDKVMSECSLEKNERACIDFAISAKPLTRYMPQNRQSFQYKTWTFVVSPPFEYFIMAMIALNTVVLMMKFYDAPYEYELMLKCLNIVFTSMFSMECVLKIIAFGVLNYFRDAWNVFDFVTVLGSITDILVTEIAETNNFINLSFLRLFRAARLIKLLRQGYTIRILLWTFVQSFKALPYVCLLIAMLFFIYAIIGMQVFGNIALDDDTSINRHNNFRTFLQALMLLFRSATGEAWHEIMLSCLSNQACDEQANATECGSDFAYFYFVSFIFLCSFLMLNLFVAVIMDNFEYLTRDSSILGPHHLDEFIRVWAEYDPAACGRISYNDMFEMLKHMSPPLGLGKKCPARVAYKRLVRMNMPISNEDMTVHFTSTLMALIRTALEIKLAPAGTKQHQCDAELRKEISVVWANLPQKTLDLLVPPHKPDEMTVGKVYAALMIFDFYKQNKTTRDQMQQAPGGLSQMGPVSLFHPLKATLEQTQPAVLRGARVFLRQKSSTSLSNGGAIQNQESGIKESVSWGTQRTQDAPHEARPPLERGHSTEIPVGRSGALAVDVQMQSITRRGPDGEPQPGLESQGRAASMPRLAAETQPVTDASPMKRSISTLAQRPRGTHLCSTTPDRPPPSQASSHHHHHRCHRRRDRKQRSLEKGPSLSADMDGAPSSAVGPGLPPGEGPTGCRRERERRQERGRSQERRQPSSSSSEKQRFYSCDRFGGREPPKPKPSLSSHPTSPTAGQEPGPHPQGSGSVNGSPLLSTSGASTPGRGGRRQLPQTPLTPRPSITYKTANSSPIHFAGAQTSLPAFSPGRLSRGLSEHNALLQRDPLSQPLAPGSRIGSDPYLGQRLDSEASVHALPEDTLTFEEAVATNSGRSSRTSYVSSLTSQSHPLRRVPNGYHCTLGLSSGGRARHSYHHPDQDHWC
T1 sequence (P54284 whole entry partner): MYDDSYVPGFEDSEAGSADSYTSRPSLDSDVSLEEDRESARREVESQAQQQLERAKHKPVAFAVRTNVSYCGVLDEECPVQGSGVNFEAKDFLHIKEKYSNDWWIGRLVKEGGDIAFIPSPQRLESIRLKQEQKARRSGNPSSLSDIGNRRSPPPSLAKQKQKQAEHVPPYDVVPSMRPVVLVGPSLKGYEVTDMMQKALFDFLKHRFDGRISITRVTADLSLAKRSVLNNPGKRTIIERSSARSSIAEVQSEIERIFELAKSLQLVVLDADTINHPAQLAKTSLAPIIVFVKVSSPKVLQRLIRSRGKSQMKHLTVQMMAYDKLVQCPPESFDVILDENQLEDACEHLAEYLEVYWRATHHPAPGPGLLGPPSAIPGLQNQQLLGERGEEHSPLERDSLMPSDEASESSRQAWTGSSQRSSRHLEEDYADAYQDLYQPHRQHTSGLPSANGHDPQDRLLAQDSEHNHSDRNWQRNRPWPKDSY
T1 sequence (P54289 25-946 partner limits assumed): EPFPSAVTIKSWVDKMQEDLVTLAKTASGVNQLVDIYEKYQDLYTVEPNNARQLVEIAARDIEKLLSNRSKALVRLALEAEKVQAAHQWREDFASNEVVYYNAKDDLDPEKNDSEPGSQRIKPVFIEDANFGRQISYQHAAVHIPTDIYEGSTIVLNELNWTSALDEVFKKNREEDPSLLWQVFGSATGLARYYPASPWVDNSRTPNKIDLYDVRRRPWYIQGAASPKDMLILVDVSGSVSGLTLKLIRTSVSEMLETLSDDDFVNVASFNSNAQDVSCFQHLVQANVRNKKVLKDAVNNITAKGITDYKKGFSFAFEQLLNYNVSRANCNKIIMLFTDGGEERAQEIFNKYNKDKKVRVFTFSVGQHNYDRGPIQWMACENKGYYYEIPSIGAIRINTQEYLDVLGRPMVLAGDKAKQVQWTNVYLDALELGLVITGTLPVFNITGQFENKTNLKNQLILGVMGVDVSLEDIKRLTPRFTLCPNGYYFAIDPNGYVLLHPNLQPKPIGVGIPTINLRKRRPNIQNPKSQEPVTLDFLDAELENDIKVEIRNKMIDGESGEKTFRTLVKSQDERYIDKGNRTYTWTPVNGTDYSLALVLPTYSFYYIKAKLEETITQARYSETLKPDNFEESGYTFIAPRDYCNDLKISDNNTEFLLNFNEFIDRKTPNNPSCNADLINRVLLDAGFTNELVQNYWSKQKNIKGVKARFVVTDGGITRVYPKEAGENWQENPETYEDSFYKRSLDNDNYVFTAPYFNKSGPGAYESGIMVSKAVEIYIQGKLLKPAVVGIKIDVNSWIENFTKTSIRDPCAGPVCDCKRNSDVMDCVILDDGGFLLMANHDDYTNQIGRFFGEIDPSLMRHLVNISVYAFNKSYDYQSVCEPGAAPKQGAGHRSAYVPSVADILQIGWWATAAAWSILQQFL
T1 sequence (P54289 947-1103 partner limits assumed): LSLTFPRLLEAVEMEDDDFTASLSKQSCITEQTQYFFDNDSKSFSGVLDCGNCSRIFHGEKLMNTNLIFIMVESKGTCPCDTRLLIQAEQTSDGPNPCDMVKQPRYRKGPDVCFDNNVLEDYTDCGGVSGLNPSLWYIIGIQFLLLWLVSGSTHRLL
Format: cell-based
Procedure: Cells were plated in 384-well, clear-bottom, black-walled, poly-D-lysine coated plates (Becton Dickinson, Franklin Lake, N.J.) 2 days prior to use in the FLIPR assay. 100 μL of cells (1.4×10^6 cell/mL) containing doxycyline (Sigma-Aldrich, 1.5 μg/mL; to induce channel expression) were added to each well using a Multidrop (Thermo Scientific, Waltham, Mass.) and were maintained in 5% CO2 incubator at 37° C. On the morning of the assay, cells were transferred to a 5% CO2 incubator at 29° C.
Cells were washed with a wash buffer containing (in mM): 118 NaCl, 18.4 HEPES, 11.7 D-glucose, 2 CaCl2, 0.5 MgSO4, 4.7 KCl, 1.2 KH2PO4, pH adjusted to 7.2 with NaOH. 4.4 μM of the fluorescent indicator dye, Fluo-4 (Invitrogen), prepared in pluronic acid (Sigma-Aldrich), was loaded into the wells and incubated for 45 minutes at 29° C. in 5% CO2. Cells were then rinsed with either a 2 mM KCl closed-state buffer (in mM: 138.5 NaCl, 10 HEPES, 10 D-glucose, 1 CaCl2, and 2 KCl, with the pH adjusted to 7.4 with NaOH) when performing the closed-state assay or 12.5 mM KCl inactivated-state buffer (in mM: 128 NaCl, 10 HEPES, 10 D-glucose, 1 CaCl2, and 12.5 mM KCl, with the pH adjusted to 7.4 with NaOH) when performing the inactivated-state assay.
Calcium entry was evoked with an addition of 130 mM KCl stimulation buffer (in mM: 10.5 NaCl, 10 HEPES, 10 D-glucose, 1 CaCl2, and 130 KCl, with the pH adjusted to 7.4 with NaOH) for both the closed-state or inactivated-state assay. A change in the Fluo-4 fluorescence signal was assessed using FLIPR^TETRA™ instrument (Molecular Devices, Sunnyvale, Calif.) for 3 minutes following the elevation of extracellular KCl using an illumination wavelength of 470-495 nm with emissions recorded at 515-575 nm.
Concentration-dependent response curves were obtained by comparing the fluorescence signal in the presence of compound and fitted with a logistic function (1) to obtain the concentration that inhibited 50% (IC50) of the RLU signal using OriginPro v.7.5 software (OriginLab, Northampton, Mass.).
To assess the quality of the FLIPR assays the Z-factor (2) was used to quantify the suitability of the assay conditions using the following equation: […]
Data are expressed as mean and standard deviation (SD).
`CC(C)(C(=O)NCCC(F)(F)F)S(=O)(=O)c1cccc(C(F)(F)F)c1` [Compound 125, 2-methyl-2-((3-(trifluoromethyl)phenyl)sulfonyl)-N-(3,3,3-trifluoropropyl)propanamide] was tested, and the IC50 was 10000 nM.

Same assay, conditions: Table 4; Fluo-4 FLIPR; closed or inactivated state not stated; read-out: FLIPR data CaV2.2
`O=C(NCc1ccccc1S(=O)(=O)c1cccc(C(F)(F)F)c1)[C@@H]1C[C@@H](F)CN1` [Compound 69, (2S,4R)-4-fluoro-N-(2-((3-(trifluoromethyl)phenyl)sulfonyl)benzyl)pyrrolidine-2-carboxamide] was tested, and the IC50 was 9140 nM.
For `O=C(NCc1ccc(S(=O)(=O)c2cccc(C(F)(F)F)c2)cc1)[C@@H]1CCCN1` [Compound 73, (S)-N-(4-((3-(trifluoromethyl)phenyl)sulfonyl)benzyl)pyrrolidine-2-carboxamide], the IC50 was 1920 nM.
Work on `O=C(NCc1ccccc1S(=O)(=O)c1cccc(C(F)(F)F)c1)[C@H]1CCCN1` [Compound 78, (R)-N-(2-((3-(trifluoromethyl)phenyl)sulfonyl)benzyl)pyrrolidine-2-carboxamide] yielded an IC50 of 3750 nM.
`NC1(C(=O)NCc2ccc(S(=O)(=O)c3cccc(C(F)(F)F)c3)cc2)CCS(=O)(=O)CC1` [Compound 61, 4-amino-N-(4-((3-(trifluoromethyl)phenyl)sulfonyl)benzyl)tetrahydro-2H-thiopyran-4-carboxamide 1,1-dioxide] was tested, and the IC50 was 4680 nM.
In the case of `O=C(NCc1ccc(S(=O)(=O)c2cccc(C(F)(F)F)c2)cn1)[C@H]1C[C@@H](O)CN1` [Compound 106, (2R,4R)-4-hydroxy-N-((5-((3-(trifluoromethyl)phenyl)sulfonyl)pyridin-2-yl)methyl)pyrrolidine-2-carboxamide], the IC50 is reported as 5850 nM.
Work on `O=C(CCC(F)(F)F)NCc1cc(S(=O)(=O)c2cccc(C(F)(F)F)c2)ccn1` [Compound 114, 4,4,4-trifluoro-N-((4-((3-(trifluoromethyl)phenyl)sulfonyl)pyridin-2-yl)methyl)butanamide] yielded an IC50 of 3320 nM.
Compound `NC1(C(=O)NCc2ccc(S(=O)(=O)c3cccc(C(F)(F)F)c3)cc2)CCC1` [Compound 66, 1-amino-N-(4-((3-(trifluoromethyl)phenyl)sulfonyl)benzyl)cyclobutanecarboxamide] has an IC50 of 1930 nM.
In the case of `O=C(CCC(F)(F)F)NCc1ccc(S(=O)(=O)c2cccc(C(F)(F)F)c2)cn1` [Compound 105, 4,4,4-trifluoro-N-((5-((3-(trifluoromethyl)phenyl)sulfonyl)pyridin-2-yl)methyl)butanamide], the IC50 is reported as 2510 nM.
`CS(=O)(=O)c1nc(C(F)(F)F)ccc1C(=O)NCc1ccccc1S(=O)(=O)c1cccc(C(F)(F)F)c1` [Compound 40] showed an IC50 of 7000 nM.
In the case of `O=C(NCc1ccc(S(=O)(=O)c2cccc(C(F)(F)F)c2)cc1)[C@@H]1C[C@@H](F)CN1` [Compound 68, (2S,4R)-4-fluoro-N-(4-((3-(trifluoromethyl)phenyl)sulfonyl)benzyl)pyrrolidine-2-carboxamide], the IC50 is reported as 2300 nM.
With `CS(=O)(=O)c1nc(C(F)(F)F)ccc1C(=O)NCc1ccc(S(=O)(=O)c2cccc(C(F)(F)F)c2)cn1` [Compound 92, 2-(methylsulfonyl)-6-(trifluoromethyl)-N-((5-((3-(trifluoromethyl)phenyl)sulfonyl)pyridin-2-yl)methyl)nicotinamide] the IC50 was 2330 nM.
`COc1cc(C(=O)NCc2ccc(S(=O)(=O)c3cccc(C(F)(F)F)c3)cn2)cc(Cl)n1` [Compound 101, 2-chloro-6-methoxy-N-((5-((3-(trifluoromethyl)phenyl)sulfonyl)pyridin-2-yl)methyl)isonicotinamide] gave an IC50 of 1460 nM.
Compound `O=C(NCc1ccccc1S(=O)(=O)c1cccc(C(F)(F)F)c1)c1ccc(C(F)(F)F)nc1` [Compound 38] has an IC50 of 1120 nM.
`COc1cc(C(=O)NCc2ccccc2S(=O)(=O)c2cccc(C(F)(F)F)c2)cc(Cl)n1` [Compound 49, 2-chloro-6-methoxy-N-(2-((3-(trifluoromethyl)phenyl)sulfonyl)benzyl)isonicotinamide] was tested, and the IC50 was 1040 nM.

Same assay, conditions: Table 5; Fluo-4 FLIPR; closed or inactivated state not stated; read-out: FLIPR data CaV2.2
For `Cc1cc(C(=O)NCC(C)(C)S(=O)(=O)c2cccc(C(F)(F)F)c2)cc(C)c1O` [Compound 167, 4-hydroxy-3,5-dimethyl-N-(2-methyl-2-((3-(trifluoromethyl)phenyl)sulfonyl)propyl)benzamide], the IC50 was 1400 nM.
`CC(C)(CCNC(=O)c1cc(F)ccc1S(C)(=O)=O)S(=O)(=O)c1cccc(C(F)(F)F)c1` [Compound 194, 5-fluoro-N-(3-methyl-3-((3-(trifluoromethyl)phenyl)sulfonyl)butyl)-2-(methylsulfonyl)benzamide] was tested, and the IC50 was 1530 nM.
Compound `CC(C)(C(=O)Nc1ccc(Oc2ccncc2)cc1)S(=O)(=O)c1cccc(C(F)(F)F)c1` [Compound 143, 2-methyl-N-(4-(pyridin-4-yloxy)phenyl)-2-((3-(trifluoromethyl)phenyl)sulfonyl)propanamide] has an IC50 of 10000 nM.
Work on `CC(C)(CCNC(=O)[C@H](N)c1ccccc1)S(=O)(=O)c1cccc(C(F)(F)F)c1` [Compound 200] yielded an IC50 of 1050 nM.
In the case of `CC(C)(CNC(=O)c1cnc(C(F)(F)F)nc1)S(=O)(=O)c1cccc(C(F)(F)F)c1` [Compound 164, N-(2-methyl-2-((3-(trifluoromethyl)phenyl)sulfonyl)propyl)-2-(trifluoromethyl)pyrimidine-5-carboxamide], the IC50 is reported as 4660 nM.
`CC(C)(CCNC(=O)c1ccc(S(C)(=O)=O)cc1)S(=O)(=O)c1cccc(C(F)(F)F)c1` [Compound 191, N-(3-methyl-3-((3-(trifluoromethyl)phenyl)sulfonyl)butyl)-4-(methylsulfonyl)benzamide] was tested, and the IC50 was 1420 nM.
Work on `CC(C)(CNC(=O)c1ccc(S(C)(=O)=O)cc1Cl)S(=O)(=O)c1cccc(C(F)(F)F)c1` [Compound 158, 2-chloro-N-(2-methyl-2-((3-(trifluoromethyl)phenyl)sulfonyl)propyl)-4-(methylsulfonyl)benzamide] yielded an IC50 of 2920 nM.
Work on `CC(C)(CCNC(=O)c1ccccc1S(C)(=O)=O)S(=O)(=O)c1cccc(C(F)(F)F)c1` [Compound 192, N-(3-methyl-3-((3-(trifluoromethyl)phenyl)sulfonyl)butyl)-2-(methylsulfonyl)benzamide] yielded an IC50 of 3040 nM.
For `CC(C)(CN1Cc2nc(C(F)(F)F)ccc2C1=O)S(=O)(=O)c1cccc(C(F)(F)F)c1` [Compound 182, 6-(2-methyl-2-((3-(trifluoromethyl)phenyl)sulfonyl)propyl)-2-(trifluoromethyl)-6,7-dihydro-5H-pyrrolo[3,4-b]pyridin-5-one], the IC50 was 10000 nM.
`CC(C)(CCNC(=O)C1(N)CCCCC1)S(=O)(=O)c1cccc(C(F)(F)F)c1` [Compound 207, 1-amino-N-(3-methyl-3-((3-(trifluoromethyl)phenyl)sulfonyl)butyl)cyclohexanecarboxamide] showed an IC50 of 1390 nM.
Compound `CC(C)(CNC(=O)c1cnccc1C(F)(F)F)S(=O)(=O)c1cccc(C(F)(F)F)c1` [Compound 174, N-(2-methyl-2-((3-(trifluoromethyl)phenyl)sulfonyl)propyl)-4-(trifluoromethyl)nicotinamide] has an IC50 of 4360 nM.
`CC(C)(CC(=O)NCCC(F)(F)F)S(=O)(=O)c1cccc(C(F)(F)F)c1` [Compound 151, 3-methyl-3-((3-(trifluoromethyl)phenyl)sulfonyl)-N-(3,3,3-trifluoropropyl)butanamide] gave an IC50 of 8230 nM.
In the case of `CC(C)(CCNC(=O)C1(N)CCS(=O)(=O)CC1)S(=O)(=O)c1cccc(C(F)(F)F)c1` [Compound 198, 4-amino-N-(3-methyl-3-((3-(trifluoromethyl)phenyl)sulfonyl)butyl)tetrahydro-2H-thiopyran-4-carboxamide 1,1-dioxide], the IC50 is reported as 9130 nM.
`CC(C)(CCNC(=O)[C@H]1CCCC[C@H]1N)S(=O)(=O)c1cccc(C(F)(F)F)c1` [Compound 209, (1S,2R)-2-amino-N-(3-methyl-3-((3-(trifluoromethyl)phenyl)sulfonyl)butyl)cyclohexanecarboxamide] showed an IC50 of 1680 nM.
`CC(C)(NC(=O)C(C)(C)S(=O)(=O)c1cccc(C(F)(F)F)c1)c1ccccc1` [Compound 126, 2-methyl-N-(2-phenylpropan-2-yl)-2-((3-(trifluoromethyl)phenyl)sulfonyl)propanamide] was tested, and the IC50 was 4310 nM.
`Cc1nc(C(F)(F)F)ccc1C(=O)NCC(C)(C)S(=O)(=O)c1cccc(C(F)(F)F)c1` [Compound 172, 2-methyl-N-(2-methyl-2-((3-(trifluoromethyl)phenyl)sulfonyl)propyl)-6-(trifluoromethyl)nicotinamide] gave an IC50 of 2170 nM.
